{"source": "patent US20190144909A1", "about": "“METHODS OF MODULATING BCKDH” (NESTEC S.A., priority 2016, published 2019)", "origin": "cited, not measured here", "key": {"[1]": {"tested_on": "branched-chain alpha-keto acid dehydrogenase E1 B subunit (BCKDHB)"}, "[2]": {"tested_on": "branched-chain alpha-keto acid dehydrogenase E1 A subunit (BCKDHA)"}, "[3]": {"tested_on": "branched-chain alpha-keto acid dehydrogenase kinase (BCKDH kinase)"}, "BCKDH kinase": {"tested_on": "BCKDH kinase", "conditions": "Shimomura et al. (2006) J. Nutr. 136: 250S-253S"}, "[4]": {"conditions": "BCKDHA, Table 1b, from Comparative Toxicogenomics Database"}, "[5]": {"conditions": "BCKDH kinase, Table 2, from Comparative Toxicogenomics Database"}, "[6]": {"conditions": "BCKDHB, Table 1a, from Comparative Toxicogenomics Database"}}, "note": "Entries after “also recorded” stand apart in the source; their conditions may differ. Where two headings read alike, the source gives them in different places.", "data": [{"compound": "Clc1cc2c(cc1Cl)Oc1cc(Cl)c(Cl)cc1O2", "values": [{"measurement": "Interaction Actions", "setting": "[1]", "result": "affects expression"}, {"measurement": "Interaction Actions", "setting": "[2]", "result": "affects expression; also recorded: affects cotreatment/; also recorded: increases expression"}, {"measurement": "Interaction Actions", "setting": "[3]", "result": "affects reaction/; also recorded: decreases expression; also recorded: affects expression"}]}, {"compound": "c1cc2ccc3ccc4ccc5cccc6c(c1)c2c3c4c56", "note": "[1,12-benzoperylene]", "values": [{"measurement": "Interaction Actions", "setting": "[2]", "result": "increases expression"}]}, {"compound": "C#CC1(O)CC[C@H]2[C@@H]3C(O)C=C4CC(O)CC[C@]4(C)[C@H]3CC[C@@]21C", "note": "(stereo partly shown) [17-ethynyl-5-androstene-3,7,17-triol]", "values": [{"measurement": "Interaction Actions", "setting": "[2]; [4]", "result": "affects binding"}]}, {"compound": "CC(=O)Nc1ccc(O)cc1", "note": "[Acetaminophen, reference compound]", "values": [{"measurement": "Interaction Actions", "setting": "[2]; [4]", "result": "affects expression; also recorded: increases expression"}, {"measurement": "Interaction Actions", "setting": "[3]; [5]", "result": "affects expression"}]}, {"compound": "Cl.N", "note": "[Ammonium Chloride]", "values": [{"measurement": "Interaction Actions", "setting": "[1]", "result": "affects expression"}, {"measurement": "Interaction Actions", "setting": "[2]", "result": "affects expression"}, {"measurement": "Interaction Actions", "setting": "[3]", "result": "affects expression"}]}, {"compound": "OC[C@H]1O[C@@H](Oc2ccc(O)cc2)[C@H](O)[C@@H](O)[C@@H]1O", "note": "[Arbutin]", "values": [{"measurement": "Interaction Actions", "setting": "[3]; [5]", "result": "decreases expression"}]}, {"compound": "CCNc1nc(Cl)nc(NC(C)C)n1", "note": "[Atrazine]", "values": [{"measurement": "Interaction Actions", "setting": "[2]; [4]", "result": "increases expression"}, {"measurement": "Interaction Actions", "setting": "[3]; [5]", "result": "decreases expression"}]}, {"compound": "c1ccc2c(c1)cc1ccc3cccc4ccc2c1c34", "note": "[Benzo(a)pyrene]", "values": [{"measurement": "Interaction Actions", "setting": "[1]; [6]", "result": "affects expression/; also recorded: affects reaction; also recorded: increases expression"}]}, {"compound": "CC(C)(c1ccc(O)cc1)c1ccc(O)cc1", "note": "[Bisphenol A]", "values": [{"measurement": "Interaction Actions", "setting": "[2]; [4]", "result": "increases expression"}, {"measurement": "Interaction Actions", "setting": "[3]; [5]", "result": "affects expression"}]}, {"compound": "NC(=O)N1c2ccccc2C=Cc2ccccc21", "note": "[Carbamazepine, reference compound]", "values": [{"measurement": "Interaction Actions", "setting": "[2]; [4]", "result": "affects expression"}]}, {"compound": "ClC(Cl)(Cl)Cl", "note": "[Carbon Tetrachloride]", "values": [{"measurement": "Interaction Actions", "setting": "[2]", "result": "increases expression"}]}, {"compound": "C=CC(=C)Cl", "note": "[Chloroprene]", "values": [{"measurement": "Interaction Actions", "setting": "[2]", "result": "increases expression"}]}, {"compound": "CC(C)(Oc1ccc(Cl)cc1)C(=O)O", "note": "[Clofibric Acid]", "values": [{"measurement": "Interaction Actions", "setting": "[3]; [5]", "result": "affects cotreatment/; also recorded: affects expression"}]}, {"compound": "[Cl-].[Cl-].[Co+2]", "note": "[Cobaltous chloride]", "values": [{"measurement": "Interaction Actions", "setting": "[3]", "result": "decreases expression"}]}, {"compound": "[Cu]", "note": "[Copper]", "values": [{"measurement": "Interaction Actions", "setting": "[3]", "result": "affects binding/; also recorded: decreases expression"}]}, {"compound": "O=C(NN=C1CCCCC1)C(=O)NN=C1CCCCC1", "note": "[Cuprizone, reference compound]", "values": [{"measurement": "Interaction Actions", "setting": "[1]", "result": "increases expression"}]}, {"compound": "CCCCOC(=O)c1ccccc1C(=O)OCCCC", "note": "[Dibutyl Phthalate]", "values": [{"measurement": "Interaction Actions", "setting": "[3]; [5]", "result": "decreases expression"}]}, {"compound": "CCN(CC)N=O", "note": "[Diethylnitrosamine]", "values": [{"measurement": "Interaction Actions", "setting": "[1]", "result": "increases expression"}, {"measurement": "Interaction Actions", "setting": "[3]", "result": "affects cotreatment/; also recorded: affects expression"}]}, {"compound": "O=c1[nH]cc(F)c(=O)[nH]1", "note": "[Fluorouracil, reference compound]", "values": [{"measurement": "Interaction Actions", "setting": "[2]; [4]", "result": "affects expression"}]}, {"compound": "c1ccoc1", "note": "[Furan]", "values": [{"measurement": "Interaction Actions", "setting": "[2]", "result": "affects binding"}]}, {"compound": "OO", "note": "[Hydrogen Peroxide]", "values": [{"measurement": "Interaction Actions", "setting": "[3]; [5]", "result": "affects expression"}]}, {"compound": "OCl", "note": "[Hypochlorous Acid]", "values": [{"measurement": "Interaction Actions", "setting": "[3]; [5]", "result": "decreases expression"}]}, {"compound": "CNC1(c2ccccc2Cl)CCCCC1=O", "note": "(stereo not shown) [Ketamine, reference compound]", "values": [{"measurement": "Interaction Actions", "setting": "[2]", "result": "increases expression"}]}, {"compound": "COCC(=O)O", "note": "[Methoxyacetic acid]", "values": [{"measurement": "Interaction Actions", "setting": "[3]; [5]", "result": "affects expression"}]}, {"compound": "[CH3][Hg][Cl]", "note": "[Methylmercuric chloride]", "values": [{"measurement": "Interaction Actions", "setting": "[1]", "result": "increases expression"}, {"measurement": "Interaction Actions", "setting": "[2]", "result": "increases expression"}]}, {"compound": "C[C@@H]1Cc2c(Cl)cc(C(=O)N[C@@H](Cc3ccccc3)C(=O)O)c(O)c2C(=O)O1", "note": "[Ochratoxin A]", "values": [{"measurement": "Interaction Actions", "setting": "[3]", "result": "decreases expression"}]}, {"compound": "CC12CC1(C)C(=O)N(c1cc(Cl)cc(Cl)c1)C2=O", "note": "(stereo not shown) [Procymidone]", "values": [{"measurement": "Interaction Actions", "setting": "[3]; [5]", "result": "decreases expression"}]}, {"compound": "[Na+].[Na+].[O]=[Cr](=[O])([O-])[O][Cr](=[O])(=[O])[O-]", "note": "[Sodium bichromate]", "values": [{"measurement": "Interaction Actions", "setting": "[3]", "result": "decreases expression"}]}, {"compound": "C/C=C(/C)C(=O)O[C@H]1C(C)=C2[C@H]([C@@H]1OC(=O)CCCCCCC)[C@@](C)(OC(C)=O)C[C@H](OC(=O)CCC)[C@@]1(O)[C@H]2OC(=O)[C@@]1(C)O", "note": "[Thapsigargin, reference compound]", "values": [{"measurement": "Interaction Actions", "setting": "[3]; [5]", "result": "decreases expression"}]}, {"compound": "CC[C@@]1(O)C(=O)OCc2c1cc1n(c2=O)Cc2cc3c(CN(C)C)c(O)ccc3nc2-1", "note": "[Topotecan, reference compound]", "values": [{"measurement": "Interaction Actions", "setting": "[2]; [4]", "result": "affects response"}]}, {"compound": "CCCC(CCC)C(=O)O", "note": "[Valproic Acid, reference compound]", "values": [{"measurement": "Interaction Actions", "setting": "[1]; [6]", "result": "affects expression; also recorded: increases expression"}, {"measurement": "Interaction Actions", "setting": "[2]; [4]", "result": "affects expression"}, {"measurement": "Interaction Actions", "setting": "[3]; [5]", "result": "affects expression"}]}, {"compound": "CN[C@H](CC(C)C)C(=O)N[C@H]1C(=O)N[C@@H](CC(N)=O)C(=O)N[C@H]2C(=O)N[C@H]3C(=O)N[C@H](C(=O)N[C@H](C(=O)O)c4cc(O)cc(O)c4-c4cc3ccc4O)[C@H](O)c3ccc(c(Cl)c3)Oc3cc2cc(c3O[C@@H]2O[C@H](CO)[C@@H](O)[C@H](O)[C@H]2O[C@H]2C[C@](C)(N)[C@H](O)[C@H](C)O2)Oc2ccc(cc2Cl)[C@H]1O", "note": "[Vancomycin, reference compound]", "values": [{"measurement": "Interaction Actions", "setting": "[1]", "result": "increases expression"}, {"measurement": "Interaction Actions", "setting": "[2]", "result": "increases expression"}]}, {"compound": "C=CC1(C)OC(=O)N(c2cc(Cl)cc(Cl)c2)C1=O", "note": "(stereo not shown) [Vinclozolin]", "values": [{"measurement": "Interaction Actions", "setting": "[2]; [4]", "result": "increases expression"}]}, {"compound": "Cc1cccc(Nc2cc(Cl)nc(SCC(=O)O)n2)c1C", "note": "[pirinixic acid, reference compound]", "values": [{"measurement": "Interaction Actions", "setting": "[1]; [6]", "result": "increases expression"}, {"measurement": "Interaction Actions", "setting": "[2]; [4]", "result": "increases expression"}]}, {"compound": "CC(C)CC(Cl)C(=O)O", "note": "(stereo not drawn) [α-chloroisocaproic acid]", "values": [{"measurement": "inhibitor of BCKDH kinase", "setting": "BCKDH kinase", "result": "most potent known inhibitor of BCKDH kinase"}]}, {"compound": "CC(C)CC(=O)C(=O)O", "note": "[α-ketoisocaproic acid]", "values": [{"measurement": "inhibitor of BCKDH kinase", "setting": "BCKDH kinase", "result": "known physiological inhibitor of BCKDH kinase"}]}, {"compound": "Tunicamycin [reference compound]", "values": [{"measurement": "Interaction Actions", "setting": "[2]", "result": "increases expression"}, {"measurement": "Interaction Actions", "setting": "[3]", "result": "decreases expression"}]}, {"compound": "potassium chromate(VI)", "values": [{"measurement": "Interaction Actions", "setting": "[1]", "result": "increases expression"}]}]}
